Counter-ions that a name gives are not always drawn.
How the values were obtained:
[1] = biological target: human VAP-1 enzyme (SSAO) (Homo sapiens (Human), UniProt Q16853); assay: Inhibitory effect on human VAP-1 enzyme (SSAO) activity, radiochemistry-enzymatic assay with 14C-benzylamine; type: biochemical; details: enzyme from CHO cells expressing human VAP-1; 14C-benzylamine 1×10^−5 mol/L
Description: Inhibitory Effect of Compound on Human VAP-1 Enzyme (SSAO) Activity
(§1) A human VAP-1 enzyme (SSAO) activity was measured by a radiochemistry-enzymatic assay using ^14C-benzylamine as an artificial substrate. An enzyme suspension prepared from CHO (Chinese Hamster Ovary) cells stably expressing a human VAP-1 enzyme (SSAO) was preincubated with the compound of the present invention in a 96-well microplate at room temperature for 30 minutes. Subsequently, the enzyme suspension was incubated with ^14C-benzylamine (a final concentration of 1×10^−5 mol/L) to a final volume of […] at 37° C. for 1 hour. The enzymatic reaction was stopped by the addition of 2 mol/L (50 μL) of citric acid. The oxidation products were extracted directly in a 200-μL toluene scintillator, and the radioactivity was measured with a scintillation spectrometer.
(§2) In addition, the inhibitory activity is expressed in IC50 (nmol/L).

[2] = tested on: VAP-1 enzyme activity in plasma; assay: Plasma VAP-1 enzyme activity after oral administration to rats (radio-enzyme assay); type: in vivo, Wistar male rats; details: rat, oral 1 mg/kg; for Inhibition Ratio (%) of plasma VAP-1 activity, 1 h: 1 h after administration; for Inhibition Ratio (%) of plasma VAP-1 activity, 3 h: 3 h after administration; for Inhibition Ratio (%) of plasma VAP-1 activity, 6 h: 6 h after administration; for Inhibition Ratio (%) of plasma VAP-1 activity, 12 h: 12 h after administration
Description: Eight-week to twelve-week Wistar male rats were fasted for 20 hours, and orally administered with a test drug (1 mg/1 kg). Heparin blood collection from the tail vein was performed immediately before the administration, and at 1 h, 3 h, 6 h, and 12 h after the administration. The resulting blood was subjected to centrifugation at 14000 rpm for 5 minutes to separate plasma, and the VAP-1 enzyme activity in the resulting plasma was measured by a radio-enzyme assay method.
For the radio-enzyme assay method, ^14C-benzylamine which is a synthetic substrate (10 μM) was reacted with the resulting plasma at 37° C., and the resulting metabolite was extracted with a mixture of toluene/ethyl acetate. The radioactivity was measured and taken as a VAP-1 enzyme activity in the plasma. The effect of the test drug was calculated from the ratio (%) of the VAP-1 activity after the administration of the test drug relative to the VAP-1 activity in the plasma immediately before the administration (100%).

rat VAP-1 enzyme (SSAO) = rat VAP-1 enzyme (SSAO) (Rattus norvegicus (Rat), UniProt O08590); assay: Inhibitory effect on rat VAP-1 enzyme (SSAO) activity, radiochemistry-enzymatic assay with 14C-benzylamine; type: biochemical; details: enzyme from CHO cells expressing rat VAP-1; 14C-benzylamine 1×10^−5 mol/L
Sequence of rat VAP-1 enzyme (SSAO) (O08590 whole entry): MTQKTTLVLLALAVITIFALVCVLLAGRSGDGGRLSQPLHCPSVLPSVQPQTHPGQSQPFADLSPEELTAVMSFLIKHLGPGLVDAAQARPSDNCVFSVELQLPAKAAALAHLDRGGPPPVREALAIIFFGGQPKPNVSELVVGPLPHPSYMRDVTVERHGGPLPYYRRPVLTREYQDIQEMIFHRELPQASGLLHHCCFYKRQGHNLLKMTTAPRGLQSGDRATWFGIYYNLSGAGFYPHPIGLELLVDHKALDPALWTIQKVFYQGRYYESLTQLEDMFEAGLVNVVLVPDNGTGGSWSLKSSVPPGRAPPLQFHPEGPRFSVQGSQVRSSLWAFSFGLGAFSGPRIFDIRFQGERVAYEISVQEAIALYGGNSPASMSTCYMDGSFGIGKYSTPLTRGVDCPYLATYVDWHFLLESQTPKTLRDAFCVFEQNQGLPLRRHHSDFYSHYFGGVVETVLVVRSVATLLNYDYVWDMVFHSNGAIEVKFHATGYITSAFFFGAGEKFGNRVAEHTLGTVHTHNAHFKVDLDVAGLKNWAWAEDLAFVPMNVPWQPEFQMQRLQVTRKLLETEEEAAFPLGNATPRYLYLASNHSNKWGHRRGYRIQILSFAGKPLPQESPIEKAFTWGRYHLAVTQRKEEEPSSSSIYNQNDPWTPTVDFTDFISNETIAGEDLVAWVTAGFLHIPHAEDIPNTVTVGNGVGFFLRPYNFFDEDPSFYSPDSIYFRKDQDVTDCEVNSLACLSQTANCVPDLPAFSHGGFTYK
Description: Inhibitory Effect of Compound on Rat VAP-1 Enzyme (SSAO) Activity
as §1, with “rat VAP-enzyme 1” for “human VAP-1 enzyme”
as §2

Sequence of human VAP-1 enzyme (SSAO) (Q16853 whole entry): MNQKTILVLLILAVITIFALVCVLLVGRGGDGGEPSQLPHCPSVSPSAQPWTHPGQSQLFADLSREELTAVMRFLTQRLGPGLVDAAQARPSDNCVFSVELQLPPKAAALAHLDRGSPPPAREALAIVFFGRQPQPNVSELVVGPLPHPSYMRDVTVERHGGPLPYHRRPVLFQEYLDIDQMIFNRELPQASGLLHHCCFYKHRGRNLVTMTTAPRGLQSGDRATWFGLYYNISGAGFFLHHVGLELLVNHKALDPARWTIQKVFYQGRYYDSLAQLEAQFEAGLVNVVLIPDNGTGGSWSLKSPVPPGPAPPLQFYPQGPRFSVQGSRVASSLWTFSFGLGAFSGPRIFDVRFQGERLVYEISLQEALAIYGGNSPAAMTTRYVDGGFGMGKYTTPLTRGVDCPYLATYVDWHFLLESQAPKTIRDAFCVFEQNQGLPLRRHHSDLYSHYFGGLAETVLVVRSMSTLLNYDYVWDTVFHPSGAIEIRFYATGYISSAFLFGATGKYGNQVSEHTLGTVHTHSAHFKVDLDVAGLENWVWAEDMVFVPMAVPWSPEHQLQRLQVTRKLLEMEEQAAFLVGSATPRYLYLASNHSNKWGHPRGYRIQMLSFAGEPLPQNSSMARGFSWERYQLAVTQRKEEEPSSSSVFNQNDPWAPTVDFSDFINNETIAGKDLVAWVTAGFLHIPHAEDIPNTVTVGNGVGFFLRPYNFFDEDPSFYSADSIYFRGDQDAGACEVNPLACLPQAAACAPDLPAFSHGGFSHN

SMILES | IC50 [1] [nM] | IC50 (rat VAP-1 enzyme (SSAO)) [nM] | Inhibition Ratio (%) of plasma VAP-1 activity, 1 h [2] [%] | Inhibition Ratio (%) of plasma VAP-1 activity, 3 h [2] [%] | Inhibition Ratio (%) of plasma VAP-1 activity, 6 h [2] [%] | Inhibition Ratio (%) of plasma VAP-1 activity, 12 h [2] [%]
CN(Cc1cccc(-c2cnc(N3CCS(=O)(=O)CC3)nc2)c1)C(=O)CN [Ex 216] | 90 | 40 | 25 | −7 | 15 | 25
CN(Cc1cccc(-c2cnc(N3CCOC(CO)C3)nc2)c1)C(=O)CN (stereo not shown) [Ex 79] | 66 | 34 | 24 | 21 | 15 | 14
C[C@@H]1CN(c2ccc(-c3cccc(CN(C)C(=O)CN)c3)cn2)C[C@H](C)O1 [Ex 80] | 81 | 39 | 48 | 43 | 26 | 21
C[C@@H]1CN(c2ncc(-c3cccc(CN(C)C(=O)CN)c3)cn2)C[C@H](C)O1 [Ex 78] |  |  | 31 | 18 | 3 | −4
CN(Cc1cccc(-c2cnc(N3CCCC3)nc2)c1)C(=O)CN [Ex 75] | 49 | 3.6 | 78 | 58 | 38 | 24
CN(Cc1cccc(-c2cnc(N3CCC(O)CC3)nc2)c1)C(=O)CN [Ex 84] | 140 | 15 | 16 | 20 | 17 | 
CN(Cc1cccc(-c2cnc(N3CCOCC3)nc2)c1)C(=O)CN [Example 69, N-methyl-N-[3-(2-morpholin-4-ylpyrimidin-5-yl)benzyl]glycinamide L-tartrate] | 32 | 9.8 | 72 | 56 | 39 | 24
Cc1cc(/C=C/C(=O)O)cnc1N1CCN(c2ncc(-c3cccc(CN(C)C(=O)CN)c3)cn2)CC1 [Example 19, (2E)-3-(6-{-4-[5-(3-{[glycyl(methyl)amino]methyl}phenyl)pyrimidin-2-yl]piperazin-1-yl}-5-methylpyridin-3-yl)acrylic acid dihydrochloride] | 6.9 | 6.9 | 84 | 79 | 75 | 63
CN(Cc1cccc(-c2cnc(N3CC[C@H](F)C3)nc2)c1)C(=O)CN [Example 16] | 49 | 7.4 | 83 | 83 | 53 | 42
CN(Cc1cccc(-c2cnc(N3CCN(c4ncccc4Cl)CC3)nc2)c1)C(=O)CN [Ex 147] | 72 | 44 | 70 | 79 | 75 | 66
Cc1cc(CCC(=O)O)cnc1N1CCN(c2ncc(-c3cccc(CN(C)C(=O)CN)c3)cn2)CC1 [Ex 66] |  |  | 78 | 81 | 74 | 67

More lines, main results first:

IC50 [1] [nM] | IC50 (rat VAP-1 enzyme (SSAO)) [nM] | SMILES | Inhibition Ratio (%) of plasma VAP-1 activity, 1 h [2] [%] | Inhibition Ratio (%) of plasma VAP-1 activity, 3 h [2] [%] | Inhibition Ratio (%) of plasma VAP-1 activity, 6 h [2] [%] | Inhibition Ratio (%) of plasma VAP-1 activity, 12 h [2] [%]
25 | 15 | CN(Cc1cccc(-c2cnc(N3CCN(c4ccc(C(=O)O)cc4Cl)CC3)nc2)c1)C(=O)CN [Example 263, 3-chloro-4-{4-[5-(3-{[glycyl(methyl)amino)methyl}phenyl)pyrimidin-2-yl]piperazin-1-yl}benzoic acid dihydrochloride] | 97 | 95 | 80 | 75
7 | 14 | CN(Cc1cccc(-c2cnc(N3CC=C(c4cccnc4)CC3)nc2)c1)C(=O)CN [Ex 191] | 35 | 43 | 48 | 20
11 | 5.8 | CN(Cc1cccc(-c2cnc(N3Cc4cccnc4C3)nc2)c1)C(=O)CN [Ex 95] | 70 | 67 | 71 | 21
23 | 19 | CN(Cc1cccc(-c2cnc(N3CCC(c4cccnc4)CC3)nc2)c1)C(=O)CN [Ex 190] | 42 | 48 | 41 | 11
18 | 12 | Cc1ncccc1N1CCN(c2ncc(-c3cccc(CN(C)C(=O)CN)c3)cn2)CC1 [Ex 91] | 68 | 68 | 68 | 44
17 | 21 | CN(Cc1cccc(-c2cnc(N3CCN(c4ccc(C#N)nc4)CC3)nc2)c1)C(=O)CN [Example 261, N-(3-{2-[4-(6-cyanopyridin-3-yl)piperazin-1-yl]pyrimidin-5-yl}benzyl)-N-methylglycinamide L-tartrate] | 36 | 44 | 45 | 32
31 | 21 | CN(Cc1cccc(-c2cnc(N3CCN(c4ncc(/C=C/C(=O)O)cc4Cl)CC3)nc2)c1)C(=O)CN [Example 33] | 84 | 87 | 97 | 83
32 | 22 | Cc1cccnc1N1CCN(c2ncc(-c3cccc(CN(C)C(=O)CN)c3)cn2)CC1 [Example 3, N-methyl-N-(3-{2-[4-(3-methylpyridin-2-yl)piperazin-1-yl]pyrimidin-5-yl}benzyl)glycinamide L-tartrate] | 65 | 77 | 71 | 47
20 | 12 | Cc1nc2c(s1)CN(c1ncc(-c3cccc(CN(C)C(=O)CN)c3)cn1)CC2 [Ex 102] | 65 | 62 | 71 | 40
18 | 10 | CN(Cc1cccc(-c2cnc(N3CCN(c4ncc(C(=O)O)cc4Cl)CC3)nc2)c1)C(=O)CN [Example 32] | 68 | 70 | 58 | 45
48 | 21 | CN(Cc1cccc(-c2cnc(N3CCC(N4CCOCC4)CC3)nc2)c1)C(=O)CN [Example 51] | 30 | 37 | 43 | 32

Reference: patent publication US8802679B2, “Glycine compound” (Astellas Pharma Inc., priority 2009, dated 2014)
